{"source": "patent US10213490B2", "about": "“Compositions for providing agents that degrade in water” (VIRUN, INC., priority 2015, dated 2019)", "origin": "cited, not measured here", "data": [{"smiles": "N[C@@H](CCC(=O)N[C@@H](CS)C(=O)NCC(=O)O)C(=O)O", "note": "[glutathione]", "values": [{"measurement": "glutathione remaining", "setting": "stored in water at pH 2 and 7, after 7 days", "value": "approximately 65%"}, {"measurement": "glutathione degraded", "setting": "stored in water, pH 3 to 6, 7 days", "value": 20, "unit": "%"}]}]}
